# Results published in US12492188B2, “1H-benzo[D]imidazole derivatives as TLR9 inhibitors for the treatment of fibrosis” (BRISTOL-MYERS SQUIBB COMPANY, priority 2020, dated 2025).
# pIC50: −log10 of the molar value. Where two headings read alike, the source gives them in different places.
# What was measured:
# Assay type in all cases: cell-based
# human TLR7 = target: T1, human TLR7 (Homo sapiens, UniProt Q9NYK1); assay: TLR7 inhibition reporter assay (HEK-Blue cells, secreted embryonic alkaline phosphatase reporter); details: HEK-Blue cells overexpressing human TLR7, stimulated with gardiquimod 7.5 μM; read-out: TLR 7 IC50
# T1 construct: host or cells: HEK-Blue cells (HEK293-derived reporter line)
# T1 sequence (Q9NYK1 27-1049): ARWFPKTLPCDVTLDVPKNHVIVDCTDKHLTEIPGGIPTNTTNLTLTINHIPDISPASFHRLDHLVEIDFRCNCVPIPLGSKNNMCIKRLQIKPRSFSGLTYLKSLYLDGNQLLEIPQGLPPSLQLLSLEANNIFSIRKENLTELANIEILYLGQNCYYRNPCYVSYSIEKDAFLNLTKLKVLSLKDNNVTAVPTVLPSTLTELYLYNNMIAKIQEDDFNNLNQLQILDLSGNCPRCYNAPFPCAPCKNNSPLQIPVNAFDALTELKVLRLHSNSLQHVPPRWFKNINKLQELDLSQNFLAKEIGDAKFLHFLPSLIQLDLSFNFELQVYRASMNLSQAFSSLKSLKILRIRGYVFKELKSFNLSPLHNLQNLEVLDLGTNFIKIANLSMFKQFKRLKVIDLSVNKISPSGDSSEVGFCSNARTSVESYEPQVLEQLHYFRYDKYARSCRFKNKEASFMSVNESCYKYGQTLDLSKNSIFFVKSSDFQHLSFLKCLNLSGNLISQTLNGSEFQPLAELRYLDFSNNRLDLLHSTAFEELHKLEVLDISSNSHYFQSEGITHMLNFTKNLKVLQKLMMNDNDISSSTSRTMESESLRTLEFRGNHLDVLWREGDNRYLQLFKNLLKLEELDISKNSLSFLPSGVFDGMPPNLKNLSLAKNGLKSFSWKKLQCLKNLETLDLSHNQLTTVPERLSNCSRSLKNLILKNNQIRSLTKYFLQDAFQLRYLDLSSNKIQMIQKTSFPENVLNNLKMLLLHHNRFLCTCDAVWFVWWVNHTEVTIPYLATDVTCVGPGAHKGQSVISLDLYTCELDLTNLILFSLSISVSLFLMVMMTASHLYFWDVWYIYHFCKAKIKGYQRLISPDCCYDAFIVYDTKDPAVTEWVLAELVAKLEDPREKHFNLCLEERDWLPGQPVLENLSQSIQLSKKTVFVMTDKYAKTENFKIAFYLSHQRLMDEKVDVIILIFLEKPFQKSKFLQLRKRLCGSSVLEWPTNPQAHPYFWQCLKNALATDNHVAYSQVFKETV
# In short: (§1)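 HEK-Blue cells overexpressing the respective receptor, with an NF-κB/AP-1-driven SEAP reporter, were pre-treated with compound (0.05 nM–50 μM) for 30 min at room temperature. Stimulation used gardiquimod 7.5 μM (TLR7), R848 15.9 μM (TLR8) or ODN2006 5 nM (TLR9); SEAP was read after 22 h at 37 °C as percent inhibition.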
# human TLR8 = target: T2, human TLR8 (Homo sapiens, UniProt Q9NR97); assay: TLR8 inhibition reporter assay (HEK-Blue cells, secreted embryonic alkaline phosphatase reporter); details: HEK-Blue cells overexpressing human TLR8, stimulated with R848 15.9 μM; read-out: TLR 8 IC50
# T2 construct: host or cells: HEK-Blue cells (HEK293-derived reporter line)
# T2 sequence (Q9NR97 27-1041): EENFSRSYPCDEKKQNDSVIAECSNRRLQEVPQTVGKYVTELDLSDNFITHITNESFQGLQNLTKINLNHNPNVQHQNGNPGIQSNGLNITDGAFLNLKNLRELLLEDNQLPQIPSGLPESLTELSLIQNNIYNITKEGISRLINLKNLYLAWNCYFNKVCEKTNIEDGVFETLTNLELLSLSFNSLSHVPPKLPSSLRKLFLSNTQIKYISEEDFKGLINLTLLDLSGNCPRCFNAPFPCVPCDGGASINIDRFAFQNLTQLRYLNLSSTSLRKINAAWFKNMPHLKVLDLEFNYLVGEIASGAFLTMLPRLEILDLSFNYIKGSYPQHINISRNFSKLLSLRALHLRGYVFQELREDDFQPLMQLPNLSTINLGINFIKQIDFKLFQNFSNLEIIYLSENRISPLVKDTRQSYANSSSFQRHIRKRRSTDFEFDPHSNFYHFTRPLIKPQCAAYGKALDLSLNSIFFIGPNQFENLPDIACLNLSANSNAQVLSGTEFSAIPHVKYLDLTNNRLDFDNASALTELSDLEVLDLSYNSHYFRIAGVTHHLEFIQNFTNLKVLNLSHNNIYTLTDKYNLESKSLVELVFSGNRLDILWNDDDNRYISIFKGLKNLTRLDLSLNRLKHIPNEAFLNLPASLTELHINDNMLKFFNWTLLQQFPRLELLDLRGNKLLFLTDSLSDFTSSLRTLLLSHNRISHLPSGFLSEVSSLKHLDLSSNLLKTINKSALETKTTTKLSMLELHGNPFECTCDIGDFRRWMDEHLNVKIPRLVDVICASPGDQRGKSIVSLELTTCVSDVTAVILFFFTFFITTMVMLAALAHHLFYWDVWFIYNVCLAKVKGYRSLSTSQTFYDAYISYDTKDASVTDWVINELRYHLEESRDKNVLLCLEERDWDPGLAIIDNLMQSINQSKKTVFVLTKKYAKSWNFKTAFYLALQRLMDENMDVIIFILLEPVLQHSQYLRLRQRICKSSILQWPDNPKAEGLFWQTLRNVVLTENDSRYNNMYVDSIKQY
# In short: as §1
# human TLR9 = target: T3, human TLR9 (Homo sapiens, UniProt Q9NR96); assay: TLR9 inhibition reporter assay (HEK-Blue cells, secreted embryonic alkaline phosphatase reporter)
# T3 construct: host or cells: HEK-Blue cells (HEK293-derived reporter line)
# T3 sequence (Q9NR96 26-1032): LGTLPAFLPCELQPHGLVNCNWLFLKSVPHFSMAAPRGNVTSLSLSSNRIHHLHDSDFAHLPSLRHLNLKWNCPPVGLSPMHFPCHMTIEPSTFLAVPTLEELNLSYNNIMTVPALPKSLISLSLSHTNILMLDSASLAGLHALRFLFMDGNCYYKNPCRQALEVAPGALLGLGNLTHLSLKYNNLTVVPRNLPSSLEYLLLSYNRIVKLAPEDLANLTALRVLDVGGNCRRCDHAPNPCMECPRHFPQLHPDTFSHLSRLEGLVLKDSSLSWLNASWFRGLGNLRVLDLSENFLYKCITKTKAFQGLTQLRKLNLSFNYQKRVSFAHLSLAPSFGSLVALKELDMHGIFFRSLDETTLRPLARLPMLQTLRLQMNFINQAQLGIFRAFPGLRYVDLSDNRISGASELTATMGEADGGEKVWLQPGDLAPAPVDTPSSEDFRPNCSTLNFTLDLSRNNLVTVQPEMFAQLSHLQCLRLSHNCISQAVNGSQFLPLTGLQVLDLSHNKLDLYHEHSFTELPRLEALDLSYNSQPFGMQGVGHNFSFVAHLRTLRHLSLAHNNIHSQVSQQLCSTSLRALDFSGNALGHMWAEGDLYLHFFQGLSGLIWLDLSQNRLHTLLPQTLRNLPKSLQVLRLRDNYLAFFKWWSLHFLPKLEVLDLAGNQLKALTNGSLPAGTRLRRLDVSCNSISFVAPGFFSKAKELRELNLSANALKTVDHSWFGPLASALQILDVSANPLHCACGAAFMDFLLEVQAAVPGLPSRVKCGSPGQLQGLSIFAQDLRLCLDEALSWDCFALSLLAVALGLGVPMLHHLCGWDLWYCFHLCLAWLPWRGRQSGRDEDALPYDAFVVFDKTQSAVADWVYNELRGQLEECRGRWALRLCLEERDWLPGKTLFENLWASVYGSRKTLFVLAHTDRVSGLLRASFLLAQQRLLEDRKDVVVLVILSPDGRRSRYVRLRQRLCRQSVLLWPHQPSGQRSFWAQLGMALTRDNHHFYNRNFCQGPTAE
# In short: as §1
# [1] = HEK-Blue cells overexpressing human TLR9, stimulated with ODN2006 5 nM, read-out: TLR 9 IC50
# [2] = HEK-Blue human TLR9 reporter cells
# [3] = HEK-Blue cells overexpressing human TLR9, stimulated with ODN2006 5 nM, 22 hour incubation, reporter readout
SMILES,pIC50 (human TLR7),pIC50 (human TLR8),pIC50 (human TLR9; [1]),pIC50 (human TLR9; [2]),pIC50 (human TLR9; [3]),pIC50 (human TLR9)
"CC(C)CN1C2CCC1CC(N1CCC(c3cc(F)c4nc(-c5ccc(S(C)(=O)=O)cc5)n(C)c4c3)CC1)C2 (stereo not shown) [Example 284, 4-fluoro-6-(1-(8-isobutyl-8-azabicyclo[3.2.1]octan-3-yl)piperidin-4-yl)-1-methyl-2-(4-(methylsulfonyl)phenyl)-1H-benzo[d]imidazole]",5.28,< 4.30,6.93,6.92,,
"Cn1c(-c2ccc(S(C)(=O)=O)cc2)nc2ccc(C3CCN(C4CCCN(C5CCC5)CC4)CC3)c(F)c21 (stereo not shown) [Example 313, 6-(1-(1-cyclobutylazepan-4-yl)piperidin-4-yl)-7-fluoro-1-methyl-2-(4-(methylsulfonyl)phenyl)-1H-benzo[d]imidazole]",< 4.30,< 4.30,7.16,7.16,,
"Cc1cc(C2CCN(C3CC4CCC(C3)N4C(C)C)CC2)cc2c1nc(-c1ccc(S(C)(=O)=O)cc1)n2C (single isomer, unassigned) [Example 84, 6-(1-(8-isopropyl-8-azabicyclo[3.2.1]octan-3-yl)piperidin-4-yl)-1,4-dimethyl-2-(4-(methylsulfonyl)phenyl)-1H-benzo[d]imidazole]",4.73,< 4.60,,,7.14,
"CCN(C)C1CCN(c2ccc(-c3cc(C)c4nc(-c5ccc(S(C)(=O)=O)cc5)n(C)c4c3)cc2)CC1 [Example 386, 1-(4-(1,4-dimethyl-2-(4-(methylsulfonyl)phenyl)-1H-benzo[d]imidazol-6-yl)phenyl)-N-ethyl-N-methylpiperidin-4-amine]",5.77,5.36,6.57,,6.57,
"Cc1cc(C2CCN(C3CCCN(C4CCOCC4)CC3)CC2)cc2c1nc(-c1ccc(S(C)(=O)=O)cc1)n2C (single isomer, unassigned) [Example 307, 1,4-dimethyl-2-(4-(methylsulfonyl)phenyl)-6-(1-(1-(tetrahydro-2H-pyran-4-yl)azepan-4-yl)piperidin-4-yl)-1H-benzo[d]imidazole]",4.69,< 4.30,8.46,8.46,,
"Cc1cc(C2CCN(C3CC4CCC(C3)N4CC(C)C)CC2)cc2c1nc(-c1ccc(S(C)(=O)=O)cc1)n2C (stereo not shown) [Example 118, 6-(1-(8-isobutyl-8-azabicyclo[3.2.1]octan-3-yl)piperidin-4-yl)-1,4-dimethyl-2-(4-(methylsulfonyl)phenyl)-1H-benzo[d]imidazole]",4.72,< 4.60,6.94,,6.92,
"Cc1cc(-c2ccc(CN3CCN(C(C)C)CC3)cc2)cc2c1nc(-c1ccc(S(C)(=O)=O)cc1)n2C [Example 413, 6-(4-((4-isopropylpiperazin-1-yl)methyl)phenyl)-1,4-dimethyl-2-(4-(methylsulfonyl)phenyl)-1H-benzo[d]imidazole]",< 4.30,5.27,5.73,,5.72,
"COc1ccc(-c2nc3c(C)cc(C4CCN(C5CCN(C6CC6)CC5)CC4)cc3n2C)cc1F [Example 55, 6-(1′-cyclopropyl-[1,4′-bipiperidin]-4-yl)-2-(3-fluoro-4-methoxyphenyl)-1,4-dimethyl-1H-benzo[d]imidazole]",5.03,< 4.30,6.85,,6.85,
"COc1ccc(-c2nc3c(C)cc(C4CCN(C5CC6CCC(C5)N6C5CCOCC5)CC4)cc3n2C)cc1OC (single isomer, unassigned) [Example 166, 2-(3,4-dimethoxyphenyl)-1,4-dimethyl-6-(1-(8-(tetrahydro-2H-pyran-4-yl)-8-azabicyclo[3.2.1]octan-3-yl)piperidin-4-yl)-1H-benzo[d]imidazole]",5.33,< 4.60,7.40,,,7.40
"CC(C)CN1C2CCC1CC(N1CCC(c3ccc4c(nc(-c5ccc(S(C)(=O)=O)cc5)n4C)c3F)CC1)C2 (single isomer, unassigned) [Example 189, 4-fluoro-5-(1-(8-isobutyl-8-azabicyclo[3.2.1]octan-3-yl)piperidin-4-yl)-1-methyl-2-(4-(methylsulfonyl)phenyl)-1H-benzo[d]imidazole]",< 4.30,< 4.30,6.81,,,6.82
"Cn1c(-c2ccc(S(C)(=O)=O)cc2)nc2ccc(C3CCN(C4CCN(CC5CC5)CC4)CC3)c(F)c21 [Example 261, 6-(1′-(cyclopropylmethyl)-[1,4′-bipiperidin]-4-yl)-7-fluoro-1-methyl-2-(4-(methylsulfonyl)phenyl)-1H-benzo[d]imidazole]",5.10,< 4.30,6.81,,,6.82
